Laboratory results reported in US20080261976A1, “NOVEL PIPERIDINECARBOXAMIDE DERIVATIVES, METHOD FOR PREPARING SAME AND PHARMACEUTICAL COMPOSITIONS CONTAINING SAME” (SANOFI-AVENTIS, priority 2001, published 2008).
Where a name gives a salt, the structure may show the parent alone. Read-outs that look alike come from different tables or passages of the source.

Tests used:
[1] = molecular target: T1, cloned human NK2 receptors (Homo sapiens, UniProt P21452); assay: Binding of [125I]His-NKA to cloned human NK2 receptors expressed by CHO cells; settings: read-out: inhibition constant Ki, binding of [125I]His-NKA to cloned human NK2 receptors
T1 construct: expressed in transfected cells; host or cells: CHO cells
T1 sequence (P21452 1-398): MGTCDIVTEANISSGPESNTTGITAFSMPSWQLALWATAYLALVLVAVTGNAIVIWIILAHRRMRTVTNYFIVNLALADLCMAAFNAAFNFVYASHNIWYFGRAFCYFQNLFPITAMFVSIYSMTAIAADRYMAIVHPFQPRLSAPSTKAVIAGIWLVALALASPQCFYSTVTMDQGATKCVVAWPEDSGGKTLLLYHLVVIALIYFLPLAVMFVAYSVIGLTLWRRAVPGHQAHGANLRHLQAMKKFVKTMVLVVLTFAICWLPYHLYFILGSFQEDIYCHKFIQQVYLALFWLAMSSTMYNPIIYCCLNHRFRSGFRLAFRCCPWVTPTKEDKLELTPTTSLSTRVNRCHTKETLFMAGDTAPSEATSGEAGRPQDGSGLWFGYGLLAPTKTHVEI
Experimental: The affinity of the compounds for tachykinin receptors was evaluated in vitro by several biochemical tests using radioligands: 2) The binding of [^125I]|His-NKA to the cloned human NK2 receptors expressed by CHO cells (Y. Takeda et al., J. Neurochem., 1992, 59, 740-745). The tests were carried out according to X. Emonds-Alt et al. (Eur. J. Pharmacol., 1993, 250, 403-413; Life Sci., 1995, 56, PL 27-32). […] The inhibition constant Ki is less than or equal to 5×10^−10M.

[2] = molecular target: T2, cloned human NK3 receptors (Homo sapiens, UniProt P29371); assay: Binding of [125I]His[MePhe7]NKB to cloned human NK3 receptors expressed by CHO cells; settings: read-out: inhibition constant Ki, binding of [125I]His[MePhe7]NKB to cloned human NK3 receptors
T2 construct: expressed in transfected cells; host or cells: CHO cells
T2 sequence (P29371 1-465): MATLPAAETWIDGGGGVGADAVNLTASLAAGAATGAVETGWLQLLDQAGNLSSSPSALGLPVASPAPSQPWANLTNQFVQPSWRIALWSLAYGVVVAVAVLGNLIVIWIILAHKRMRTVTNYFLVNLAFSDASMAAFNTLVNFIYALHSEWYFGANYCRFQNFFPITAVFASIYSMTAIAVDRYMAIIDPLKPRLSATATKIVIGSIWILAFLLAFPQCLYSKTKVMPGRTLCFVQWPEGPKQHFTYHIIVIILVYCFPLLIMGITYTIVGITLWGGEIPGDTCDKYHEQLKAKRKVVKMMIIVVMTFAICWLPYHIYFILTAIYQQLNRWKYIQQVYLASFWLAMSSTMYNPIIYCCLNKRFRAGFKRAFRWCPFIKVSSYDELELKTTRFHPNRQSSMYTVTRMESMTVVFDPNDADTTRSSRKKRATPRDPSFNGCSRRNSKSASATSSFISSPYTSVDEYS
Experimental: The affinity of the compounds for tachykinin receptors was evaluated in vitro by several biochemical tests using radioligands: 3) The binding of [^125I]His[[…]]NKB to the cloned human NK3 receptors expressed by CHO cells (Buell et al., FEBS Letters, 1992, 299, 90-95). The tests were carried out according to X. Emonds-Alt et al. (Eur. J. Pharmacol., 1993, 250, 403-413; Life Sci., 1995, 56, PL 27-32).

NK2 receptor = assay: Rotating behaviour induced by intrastriatal [Nle10]NKA(4-10) in gerbils; type: in vivo, gerbil; settings: [Nle10]NKA(4-10) intrastriatal
Experimental: In gerbils, a rotating behaviour is induced by intrastriatal administration of a specific agonist of the NK2 receptor, [Nle^10]NKA(4-10); it was observed that a unilateral application of [Nle^10]NKA(4-10) into the gerbil striatum leads to strong contralateral rotations which are inhibited by the compounds according to the invention administered either by the intraperitoneal route, or by the oral route. This test was carried out according to M. Poncelet et al., Neurosci, Lett., 1993, 149, 40-42. In this test, the compounds according to the invention are active at doses ranging from 0.1 mg to 30 mg per kg.

NK3 receptor = assay: Rotating behaviour induced by intrastriatal senktide in gerbils; type: in vivo, gerbil
Experimental: This test was carried out according to X. Emonds-Alt et al., Life Sci., 1995, 56, PL27-PL32.

NK2 receptors [3] = molecular target: T3, NK2 receptors (Rattus norvegicus, UniProt P16610); assay: Increase in hippocampal acetylcholine release caused by NK2 agonist applied in the septum of rats; type: in vivo; settings: 0.1-0.3 mg/kg by the intraperitoneal route
T3 construct: from tissue; host or cells: rat brain (septum/hippocampus; prefrontal cortex), living animal
T3 sequence (P16610 1-390): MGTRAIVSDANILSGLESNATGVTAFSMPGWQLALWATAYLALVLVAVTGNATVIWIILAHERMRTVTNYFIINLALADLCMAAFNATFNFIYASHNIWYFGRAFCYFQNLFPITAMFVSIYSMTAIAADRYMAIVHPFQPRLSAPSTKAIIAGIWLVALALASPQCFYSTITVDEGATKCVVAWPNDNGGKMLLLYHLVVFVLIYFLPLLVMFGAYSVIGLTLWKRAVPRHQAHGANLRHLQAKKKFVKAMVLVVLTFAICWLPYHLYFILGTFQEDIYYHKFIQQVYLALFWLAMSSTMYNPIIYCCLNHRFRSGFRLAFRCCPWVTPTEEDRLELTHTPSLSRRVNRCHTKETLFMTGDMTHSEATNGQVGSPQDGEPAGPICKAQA
From the text: (§1) In rats, the application of an agonist of the NK2 receptors in the septum causes an increase in the release of acetylcholine in the hippocampus (test carried out according to R. Steinberg et al., Eur. J. Neurosci., 1998, 10, 2337-2345). Likewise in guinea pigs, the local application of an agonist of the NK3 receptors in the septum causes an increase in the release of acetylcholine in the hippocampus (test carried out according to N. Marco et al., Neuropeptides, 1998, 32, 481-488).

NK3 receptors [4] = molecular target: T4, NK3 receptors (Cavia porcellus, UniProt P30098); assay: Increase in hippocampal acetylcholine release caused by NK3 agonist applied in the septum of guinea pigs; type: in vivo, guinea pig; settings: 0.3-1 mg/kg by the intraperitoneal route
T4 construct: from tissue; host or cells: guinea pig brain (septum/hippocampus; A10/VTA), living animal
T4 sequence (P30098 1-440): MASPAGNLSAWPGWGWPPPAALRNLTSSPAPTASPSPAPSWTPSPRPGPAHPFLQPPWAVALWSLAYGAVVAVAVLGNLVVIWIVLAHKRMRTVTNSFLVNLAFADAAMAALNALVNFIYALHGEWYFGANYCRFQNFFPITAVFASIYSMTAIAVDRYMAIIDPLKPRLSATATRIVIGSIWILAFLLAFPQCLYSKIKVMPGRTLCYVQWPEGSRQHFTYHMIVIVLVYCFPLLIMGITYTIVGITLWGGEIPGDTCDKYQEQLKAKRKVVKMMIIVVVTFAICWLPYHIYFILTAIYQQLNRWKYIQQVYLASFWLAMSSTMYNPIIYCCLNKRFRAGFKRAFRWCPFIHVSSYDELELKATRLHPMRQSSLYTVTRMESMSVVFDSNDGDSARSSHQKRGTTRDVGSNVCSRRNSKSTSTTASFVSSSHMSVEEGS
From the text: as §1

NK2 receptors [5] = molecular target: T3, NK2 receptors; assay: Constraint stress-induced increase in tissue level of DOPAC in prefrontal cortex of rats; type: in vivo; settings: 1 mg/kg by the intraperitoneal route
From the text: In rats, constraint stress causes an increase in the tissue level of DOPAC (3,4-dihydroxyphenyl acetic acid) in the prefrontal cortex (test carried out according to B. A. Morrow et al., Eur. J. Pharmacol., 1993, 238, 255-262).

NK3 receptors [6] = molecular target: T4, NK3 receptors; assay: Haloperidol-induced increase in number of spontaneously active dopaminergic neurons in A10 region of guinea pigs; type: in vivo, guinea pig; settings: haloperidol 1 mg/kg i.p., compound 0.1-1 mg/kg by the intraperitoneal route
From the text: This increase is mediated by the activation of the NK3 receptors by endogenous neurokinin B (C. Gueudet et al., Synapse, 1999, 33, 71-79).

NK2 receptors [7] = molecular target: T3, NK2 receptors; settings: rats, literature reference; cited from earlier work

Ki [1] [nM]	Ki [2] [nM]	effect on increase in release of acetylcholine in the hippocampus caused by an NK2 agonist (NK2 receptors [3])	effect on increase in release of acetylcholine in the hippocampus caused by an NK3 agonist (NK3 receptors [4])	effect on constraint stress-induced increase in DOPAC tissue level in prefrontal cortex (NK2 receptors [5])	effect on haloperidol-induced increase in number of spontaneously active dopaminergic neurons (A10 region) (NK3 receptors [6])	Structure (SMILES)	effective dose 50 (ED50), inhibition of contralateral rotations (NK2 receptor; intraperitoneal route) [mg per kg]	effective dose 50 (ED50), inhibition of contralateral rotations (NK2 receptor; oral route) [mg per kg]	ED50, inhibition of contralateral rotations (NK3 receptor; intraperitoneal route) [mg per kg]	ED50, inhibition of contralateral rotations (NK3 receptor; oral route) [mg per kg]	effect on constraint stress-induced increase in DOPAC tissue level in prefrontal cortex (NK2 receptors [7])
0.04	0.04	blocks	blocks	completely blocks	blocks	CN(C)C(=O)C1(N2CCCCC2)CCN(CCC2(c3ccc(Cl)c(Cl)c3)CN(C(=O)c3ccccc3)CCO2)CC1 (single isomer, unassigned) [Example 1, N,N-Dimethyl-1-[2-[4-benzoyl-2-(3,4-dichloro-phenyl)morpholin-2-yl]ethyl]-4-(piperidin-1-yl)-piperidine-4-carboxamide dihydrochloride, dextrorotatory isomer]	2.9	6.5	2.8	4.3	–
0.04	2	–	–	–	–	NC(=O)C1(N2CCCCC2)CCN(CCC2(c3ccc(Cl)c(Cl)c3)CN(C(=O)c3ccccc3)CCO2)CC1 (stereo not drawn) [compound α, 1-[2-[4-benzoyl-2-(3,4-dichlorophenyl)morpholin-2-yl]ethyl]-4-(piperidin-1-yl)piperidine-4-carboxamide, reference compound]	–	–	–	–	–
–	–	–	–	–	–	CC(=O)NC1(c2ccccc2)CCN(CC[C@H](CN(C)C(=O)c2ccccc2)c2ccc(Cl)c(Cl)c2)CC1 [saredutant]	–	–	–	–	blocked
